The record followed here is ChEMBL document CHEMBL1137936, “Optimization of the indolyl quinolinone class of KDR (VEGFR-2) kinase inhibitors: effects of 5-amido- and 5-sulphonamido-indolyl groups on pharmacokinetics and hERG binding” (Bioorg Med Chem Lett, 2004).

Some results are limits rather than exact numbers.

The nature of data set [1]: Half life in dog plasma. It counts as ADME, organism-based, Canis lupus familiaris.
Data set [2] in a line: Plasma clearance in dogs. It counts as ADME, organism-based, Canis lupus familiaris. Particulars: dog.
Data set [3] is described as follows: Compound was tested for the inhibition of VEGF-stimulated mitogenesis as determined in human umbilical vein endothelial cells. The format is functional, cell-based. Particulars: endothelial cell.
The target in data set [4] is Vascular endothelial growth factor receptor 2 (Homo sapiens, UniProt P35968). Briefly: Inhibition of VEGF receptor 2 mediated phosphorylation of poly-Glu/Tyr (4:1).
For data set [5], the target named is T1, Voltage-gated inwardly rectifying potassium channel KCNH2 (Homo sapiens, UniProt Q12809). In words: Affinity for HERG voltage-gated potassium channel subunit Kv11.1.
Data set [6] is described as follows: Half life in monkey plasma after administration of 1 mg/kg iv. The format is ADME, organism-based. Details: dose 1 mg/kg, route intravenous. Particulars: cercopithecidae.
Data set [7] can be described thus: Oral bioavailability in monkey (dose 1 mg/kg p.o.). The format is ADME, organism-based. Particulars: cercopithecidae, in vivo.
Data set [8] can be described thus: Cmax in monkey after administration of 1 mg/kg iv. It counts as ADME, organism-based. Details: dose 1 mg/kg, route intravenous. Particulars: cercopithecidae, in vivo.
Data set [9] can be described thus: Volume distribution in monkey after administration of 1 mg/kg iv. It counts as ADME, organism-based. The arrangement: dose 1 mg/kg, route intravenous. Particulars: cercopithecidae, in vivo, read-out: Vss.
A short description of data set [10]: Half life in dog plasma after administration of 1 mg/kg iv. The format is ADME, organism-based, Canis lupus familiaris. The arrangement: dose 1 mg/kg, route intravenous.
Data set [11] can be described thus: Plasma clearance in monkey after administration of 1 mg/kg iv. It counts as ADME, organism-based. The arrangement: dose 1 mg/kg, route intravenous. Particulars: cercopithecidae.
The nature of data set [12]: Volume distribution in rat after administration of 2 mg/kg iv. It counts as ADME, organism-based. The arrangement: dose 2 mg/kg, route intravenous. The conditions noted are these: in vivo, read-out: Vss.
The nature of data set [13]: Oral bioavailability in rat (dose 10 mg/kg p.o.). The format is ADME, organism-based. The conditions noted are these: in vivo.
Data set [14] in a line: Oral bioavailability in dog (dose 1 mg/kg p.o.). The format is ADME, organism-based, Canis lupus familiaris. Particulars: in vivo.
The nature of data set [15]: Plasma clearance in rat after administration of 2 mg/kg iv. The format is ADME, organism-based. The arrangement: dose 2 mg/kg, route intravenous.
Data set [16] can be described thus: Cmax in dog after administration of 1 mg/kg iv. It counts as ADME, organism-based, Canis lupus familiaris. The arrangement: dose 1 mg/kg, route intravenous. Particulars: in vivo.
Data set [17] is described as follows: Volume distribution in dog after administration of 1 mg/kg iv. It counts as ADME, organism-based, Canis lupus familiaris. Details: dose 1 mg/kg, route intravenous. The conditions noted are these: in vivo, read-out: Vss.
The nature of data set [18]: Cmax in rat after administration of 2 mg/kg iv. Details: dose 2 mg/kg, route intravenous. It counts as ADME, organism-based. Particulars: in vivo.
Data set [19] can be described thus: Half life in rat plasma after administration of 2 mg/kg iv. Details: dose 2 mg/kg, route intravenous. The format is ADME, organism-based.
Data set [20] in a line: Partition coefficient (logP). The format is physicochemical. Particulars: octanol/water.
A short description of data set [21]: Plasma clearance in dog after administration of 1 mg/kg iv. Details: dose 1 mg/kg, route intravenous. It counts as ADME, organism-based, Canis lupus familiaris.
Data set [22] is described as follows: Half life in dog plasma after administration of 0.25 mg/kg iv. It counts as ADME, organism-based, Canis lupus familiaris. Details: dose 0.25 mg/kg, route intravenous.
A short description of data set [23]: Oral bioavailability in rat after administration of 10 mg/kg po. The format is ADME, organism-based. The conditions noted are these: in vivo.
Data set [24] in a line: Plasma clearance in dog after administration of 0.25 mg/kg iv. It counts as ADME, organism-based, Canis lupus familiaris. Details: dose 0.25 mg/kg, route intravenous.
In data set [25] the target is T1, Voltage-gated inwardly rectifying potassium channel KCNH2. Briefly: Effect on prolongation of the heart rate-corrected QT interval. It counts as functional.

Chain of Vascular endothelial growth factor receptor 2 (P35968 whole entry): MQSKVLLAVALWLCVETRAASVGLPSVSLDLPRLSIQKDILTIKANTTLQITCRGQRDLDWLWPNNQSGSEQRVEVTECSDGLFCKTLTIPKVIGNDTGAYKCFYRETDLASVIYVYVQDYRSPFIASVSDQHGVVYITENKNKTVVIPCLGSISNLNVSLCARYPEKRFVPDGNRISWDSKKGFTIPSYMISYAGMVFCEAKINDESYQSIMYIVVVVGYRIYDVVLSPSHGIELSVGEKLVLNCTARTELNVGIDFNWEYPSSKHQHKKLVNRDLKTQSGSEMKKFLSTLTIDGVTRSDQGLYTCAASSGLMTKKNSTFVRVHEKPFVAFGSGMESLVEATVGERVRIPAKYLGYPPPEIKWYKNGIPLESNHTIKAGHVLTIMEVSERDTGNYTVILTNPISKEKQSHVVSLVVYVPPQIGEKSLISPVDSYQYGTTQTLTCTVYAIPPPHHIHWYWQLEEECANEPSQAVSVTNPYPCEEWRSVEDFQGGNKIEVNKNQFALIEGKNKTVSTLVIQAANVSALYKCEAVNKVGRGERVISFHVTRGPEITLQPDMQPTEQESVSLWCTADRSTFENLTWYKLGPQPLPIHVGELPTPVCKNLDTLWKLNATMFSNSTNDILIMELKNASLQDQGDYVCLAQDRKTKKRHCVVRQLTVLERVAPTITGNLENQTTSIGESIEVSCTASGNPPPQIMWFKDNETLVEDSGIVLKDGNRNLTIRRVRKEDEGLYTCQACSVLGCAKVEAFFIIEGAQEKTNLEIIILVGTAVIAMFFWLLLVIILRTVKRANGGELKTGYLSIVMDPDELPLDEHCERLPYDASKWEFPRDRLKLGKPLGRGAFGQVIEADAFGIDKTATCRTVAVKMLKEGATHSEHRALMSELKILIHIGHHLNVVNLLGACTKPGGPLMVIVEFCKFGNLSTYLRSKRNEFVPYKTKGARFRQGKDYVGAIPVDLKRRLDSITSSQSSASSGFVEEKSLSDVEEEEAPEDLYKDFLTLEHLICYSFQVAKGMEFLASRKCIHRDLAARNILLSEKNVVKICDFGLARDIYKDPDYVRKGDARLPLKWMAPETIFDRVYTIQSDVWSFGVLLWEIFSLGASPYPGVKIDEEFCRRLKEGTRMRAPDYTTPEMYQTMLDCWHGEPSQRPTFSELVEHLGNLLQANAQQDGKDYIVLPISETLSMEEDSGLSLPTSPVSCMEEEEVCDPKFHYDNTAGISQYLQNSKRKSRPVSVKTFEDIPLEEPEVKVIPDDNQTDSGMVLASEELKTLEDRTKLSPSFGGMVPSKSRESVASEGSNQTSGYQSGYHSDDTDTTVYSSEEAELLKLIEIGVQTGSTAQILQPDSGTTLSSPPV
T1 sequence (Q12809 whole entry): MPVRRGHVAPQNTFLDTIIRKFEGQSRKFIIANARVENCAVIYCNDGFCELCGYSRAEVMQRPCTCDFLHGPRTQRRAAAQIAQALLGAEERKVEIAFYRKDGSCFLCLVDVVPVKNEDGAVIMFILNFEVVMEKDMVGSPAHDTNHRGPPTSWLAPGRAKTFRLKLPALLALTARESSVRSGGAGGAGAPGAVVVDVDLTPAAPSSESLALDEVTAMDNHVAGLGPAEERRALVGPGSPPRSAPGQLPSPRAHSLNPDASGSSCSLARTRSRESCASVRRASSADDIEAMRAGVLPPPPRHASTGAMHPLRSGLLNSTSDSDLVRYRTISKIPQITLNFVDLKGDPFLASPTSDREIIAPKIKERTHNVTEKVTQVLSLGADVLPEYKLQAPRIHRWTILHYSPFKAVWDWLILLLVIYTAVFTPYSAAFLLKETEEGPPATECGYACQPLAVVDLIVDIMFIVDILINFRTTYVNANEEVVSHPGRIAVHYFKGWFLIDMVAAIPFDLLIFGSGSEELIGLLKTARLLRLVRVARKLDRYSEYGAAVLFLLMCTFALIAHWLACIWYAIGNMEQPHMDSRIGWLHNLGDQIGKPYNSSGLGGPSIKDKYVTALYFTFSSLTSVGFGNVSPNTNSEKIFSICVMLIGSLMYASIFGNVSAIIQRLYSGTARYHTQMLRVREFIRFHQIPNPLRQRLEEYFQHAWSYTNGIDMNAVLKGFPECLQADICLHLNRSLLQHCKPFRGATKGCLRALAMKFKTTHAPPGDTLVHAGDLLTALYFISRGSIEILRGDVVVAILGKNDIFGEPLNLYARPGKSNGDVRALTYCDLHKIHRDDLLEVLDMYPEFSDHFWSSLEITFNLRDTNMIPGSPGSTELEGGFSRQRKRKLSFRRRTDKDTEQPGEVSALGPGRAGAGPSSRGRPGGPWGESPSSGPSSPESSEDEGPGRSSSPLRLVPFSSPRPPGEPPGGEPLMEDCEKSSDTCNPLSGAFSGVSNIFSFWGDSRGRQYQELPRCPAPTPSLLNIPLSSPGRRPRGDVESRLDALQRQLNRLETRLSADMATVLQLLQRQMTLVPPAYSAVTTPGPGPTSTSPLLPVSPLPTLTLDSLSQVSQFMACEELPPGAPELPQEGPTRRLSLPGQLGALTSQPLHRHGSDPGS

As for `NC1CCN(C(=O)c2ccc3[nH]c(-c4cc5ccccc5nc4O)cc3c2)C1` (stereo not given), in [1], the half-life was 1.1 h. For the same compound, in [2], the clearance came to 1.56 L/h/kg. The IC50 in [3] turned out to be 0.004 µM; in data set [4], 0.005 µM. The IP in data set [5] was over 10000 nM.
Turning to `CN1CCN(S(=O)(=O)c2ccc3[nH]c(-c4cc5ccccc5nc4O)cc3c2)CC1`, the half-life in [6] is 3.4 h; in data set [1] it was 6.4 h; in data set [10], 6.4 h; in data set [19], 1.1 h. Besides, the figures for the bioavailability in [7], in data set [13] and in [14] were 40%, 54% and 63%, respectively. In addition, the Cmax in data set [8] is 0.63 µM; in data set [16] it was 5.2 µM; in [18], 4.8 µM. The Vd in data set [9] was 2.1 L/kg; in data set [12], 0.9 L/kg; in data set [17], 0.3 L/kg. In addition, the clearance in data set [11] came out at 0.72 L/h/kg; in [15], 1.74 L/h/kg; in data set [2] it was 0.03 L/h/kg; in [21] it was 0.03 L/h/kg. For the same compound, the figures for the 50% inhibitory concentration (IC50) in data set [3] and in data set [4] were 0.031 µM and 0.01 µM, respectively. The compound also gave an IP in data set [5] of 3440 nM. Further, the logP in data set [20] was 3.
The compound `O=c1[nH]c2ccccc2cc1-c1nc2ccccc2[nH]1` showed a concentration for half-maximal inhibition (IC50) in [3] of 1.14 µM.
Take `COCCN(C)CCOc1ccc2[nH]c(-c3cc4ccccc4nc3O)cc2c1`: the half-life in [1] was under 1 h; in [22] it was under 1 h; in data set [19], 1.4 h. Besides, the Vd in [12] came to 5 L/kg. This compound also came in with a bioavailability in data set [23] of 20%. In addition, the clearance in data set [15] is 3.36 L/h/kg; in data set [24] it was over 3 L/h/kg; in [2] it was over 3 L/h/kg. Further, the Cmax in data set [18] was found to be 0.47 µM. The results for the IC50 in data set [3] and in [4] were 0.008 µM and 0.007 µM, respectively. Also, the EC10 in data set [25] turned out to be 1.9 µM. The same compound had an IP in data set [5] of 1950 nM. In data set [20], the logP worked out at 3.1.
For `O=C(O)C1CCN(CCCOc2ccc3[nH]c(-c4cc5ccccc5nc4O)cc3c2)CC1`, the half-life in [1] was 3.2 h. Also, in [2], the clearance stood at 0.462 L/h/kg. Also, the IC50 in data set [3] worked out at 0.041 µM; in data set [4], 0.008 µM. The same compound showed an EC10 in [25] of 5.2 µM. This compound also came in with an IP in data set [5] of 3050 nM. The same compound gave a lipophilicity (logP) in [20] of 0.9.
As for `O=c1[nH]c2ccccc2cc1-c1cc2cc(S(=O)(=O)N3CCNCC3)ccc2[nH]1`, in data set [1], the half-life is 12.7 h. In data set [2], this compound had a clearance of 0.21 L/h/kg. Besides, the IC50 turned out to be 0.03 µM in data set [3] and 0.011 µM in data set [4]. Further, the IP in [5] stood at 2450 nM. In data set [20], this compound had a logP of 2.3.
The compound `CC(=O)N1CCN(CCOc2ccc3[nH]c(-c4cc5ccccc5nc4O)cc3c2)CC1` gave a half-life in data set [1] of 2.2 h. This compound also showed a clearance in data set [2] of 0.468 L/h/kg. Moreover, the IC50 in [3] and in data set [4] was 0.004 µM each time. This compound yielded an IP in data set [5] of 520 nM. In data set [20], this compound had a logP of 3.2.
Turning to `O=C(c1ccc2[nH]c(-c3cc4ccccc4nc3O)cc2c1)N1CCNCC1`, the half-life in [1] is 4.2 h. In data set [2], the clearance is 1.62 L/h/kg. Further, the IC50 was found to be 0.004 µM in data set [3] and 0.005 µM in data set [4]. Further, the IP in data set [5] was over 10000 nM. Further, the logP in [20] stood at 1.7.
For `O=c1[nH]c2ccccc2cc1-c1cc2ccccc2[nH]1`, inhibition in data set [3] was half-maximal at 0.184 µM (IC50).
Compound `NC1CCN(S(=O)(=O)c2ccc3[nH]c(-c4cc5ccccc5nc4O)cc3c2)C1` (stereo not given) had a half-life in data set [1] of 3.4 h. Moreover, in data set [2], the clearance amounted to 0.66 L/h/kg. For the same compound, the 50% inhibitory concentration (IC50) amounted to 0.027 µM in data set [3] and 0.016 µM in [4]. Further, in data set [5], the IP was 2650 nM.
Consider `CN1CCN(C(=O)c2ccc3[nH]c(-c4cc5ccccc5nc4O)cc3c2)CC1`, for which the half-life in [6] is 2.8 h; in data set [1], 2.4 h; in data set [10], 2.4 h; in data set [19] it was 2.3 h. For the same compound, the values for the bioavailability in data set [7], in [13] and in [14] were 46%, 31% and 15%, respectively. In addition, the highest concentration (Cmax) in data set [8] stood at 1.25 µM; in [16] it was 0.16 µM; in data set [18], 5.79 µM. In addition, the Vd in [9] was 0.9 L/kg; in data set [12], 0.7 L/kg; in data set [17] it was 2.9 L/kg. For the same compound, the clearance in [11] was 0.204 L/h/kg; in [15], 0.228 L/h/kg; in data set [2], 1.14 L/h/kg; in data set [21], 1.14 L/h/kg. Also, the 50% inhibitory concentration (IC50) in [3] came to 0.004 µM; in data set [4] it was 0.005 µM. The same compound registered an IP in data set [5] of 10800 nM. Also, in [20], the logP was 2.6.
In [1], `O=C(NC1CCNC1)c1ccc2[nH]c(-c3cc4ccccc4nc3O)cc2c1` (stereo not given) had a half-life of 1.7 h. In addition, the clearance in data set [2] came out at 2.28 L/h/kg. Moreover, the IC50 was 0.053 µM in data set [3] and 0.006 µM in [4]. Also, in data set [5], the IP turned out to be 13700 nM.
The compound `Oc1nc2ccccc2cc1-c1cc2cc(OCCN3CCCCC3)ccc2[nH]1` showed a half-life in data set [1] of 1.3 h. Moreover, the clearance in [2] was over 3 L/h/kg. The IC50 in [3] turned out to be 0.017 µM; in data set [4], 0.004 µM. This compound gave an EC10 in [25] of 0.64 µM. This compound had an IP in data set [5] of 980 nM. Moreover, the log partition coefficient (logP) in [20] amounted to 3.7.
For `O=c1[nH]c2ccccc2cc1-c1cc2cc(S(=O)(=O)NC3CCNC3)ccc2[nH]1` (stereo not given), the half-life in data set [1] was 9.5 h. Also, the clearance in [2] is 0.024 L/h/kg. The IC50 is 0.097 µM in data set [3] and 0.014 µM in [4]. In data set [5], this compound showed an IP of 2835 nM.

A word on the half-life: it is the time needed for the level to fall by half in the phase considered. The clearance is the rate of elimination divided by the concentration. The IC50 is the midpoint of a concentration-inhibition curve. What is called bioavailability is the share of a dose that reaches the circulation, judged against a reference dose that is usually intravenous. By Cmax is commonly meant the maximum level reached in the sampled fluid or tissue. What is called logP is the decadic logarithm of the partition coefficient of the neutral form, usually between octanol and water. A word on the EC10: it is the concentration needed for an effect of 10%.
